Source: patent US9635853B2, “Insecticidal compounds” (Syngenta Participations AG, priority 2013, dated 2017)

Tests used:
Format in all cases: in vivo
Spodoptera littoralis = Spodoptera littoralis (Egyptian cotton leafworm) leaf disc test; settings: foliar, 72 h, 200 ppm sprayed on cotton leaf discs, L1 larvae, mortality, feeding behavior, growth regulation 3 DAT
Description: Spodoptera littoralis (Egyptian cotton leafworm): Cotton leaf discs were placed on agar in a 24-well microtiter plate and sprayed with test solutions at an application rate of 200 ppm. After drying, the leaf discs were infested with 5 L1 larvae. The samples were checked for mortality, feeding behavior, and growth regulation 3 days after treatment (DAT).

Thrips tabaci = Thrips tabaci (Onion thrips) leaf disc test; settings: foliar, 168 h, 200 ppm sprayed on sunflower leaf discs, population of mixed ages, 7 days, mortality
Procedure: Thrips tabaci (Onion thrips): Sunflower leaf discs were placed on agar in a 24-well microtiter plate and sprayed with test solutions at an application rate of 200 ppm. […] After an incubation period of 7 days, samples were checked for mortality.

Diabrotica balteata = Diabrotica balteata (Corn root worm) artificial diet test; settings: 120 h, 200 ppm (concentration in well 18 ppm), L2 larvae, 5 days, larval mortality and growth regulation
Procedure: (§1) Diabrotica balteata (Corn root worm): A 24-well microtiter plate (MTP) with artificial diet was treated with test solutions at an application rate of 200 ppm (concentration in well 18 ppm) by pipetting. After drying, the MTP's were infested with L2 larvae (6-10 per well). After an incubation period of 5 days, samples were checked for larval mortality and growth regulation.

Tetranychus urticae = Tetranychus urticae (Two-spotted spider mite) leaf disc test; settings: foliar, 192 h, 200 ppm sprayed on bean leaf discs, mite populations of mixed ages, 8 days, egg, larval and adult mortality
Description: Tetranychus urticae (Two-spotted spider mite): Bean leaf discs on agar in 24-well microtiter plates were sprayed with test solutions at an application rate of 200 ppm. After drying, the leaf discs are infested with mite populations of mixed ages. 8 days later, discs are checked for egg mortality, larval mortality, and adult mortality.

Heliothis virescens = Heliothis virescens (Tobacco budworm) egg/artificial diet test; settings: 96 h, 200 ppm (concentration in well 18 ppm), eggs on artificial diet, 4 days, egg mortality, larval mortality, growth regulation
Procedure: Heliothis virescens (Tobacco budworm): Eggs (0-24 h old) were placed in 24-well microtiter plate on artificial diet and treated with test solutions at an application rate of 200 ppm (concentration in well 18 ppm) by pipetting. After an incubation period of 4 days, samples were checked for egg mortality, larval mortality, and growth regulation.

Myzus persicae = Myzus persicae (Green peach aphid) leaf disc test; settings: foliar, 144 h, 200 ppm sprayed on sunflower leaf discs, aphid population of mixed ages, 6 DAT, mortality
Procedure: Myzus persicae (Green peach aphid): Sunflower leaf discs were placed on agar in a 24-well microtiter plate and sprayed with test solutions at an application rate of 200 ppm. After drying, the leaf discs were infested with an aphid population of mixed ages. After an incubation period of 6 DAT, samples were checked for mortality.

Plutella xylostella = Plutella xylostella (Diamond back moth) artificial diet test; settings: 144 h, 200 ppm (concentration in well 18 ppm), L2 larvae, 6 days, larval mortality and growth regulation
Procedure: as §1, with “Plutella xylostella (Diamond back moth):” for “Diabrotica balteata (Corn root worm): A”, “(7-12” for “(6-10”, “6” for “5”

Measured: pest or weed control at 200 ppm

CN(C(=O)c1cc[n+]([O-])cc1)c1cccc(C(=O)Nc2c(Br)cc(C(F)(C(F)(F)F)C(F)(F)F)cc2Br)c1F [Compound 9]
≥ 80%: all assays above

CCN(C(=O)c1ccncc1)c1cccc(C(=O)Nc2c(C)cc(C(F)(C(F)(F)F)C(F)(F)F)cc2OC(F)F)c1F [Compound 19]
not listed: Heliothis virescens
≥ 80%: all other assays above

CCc1cc(C(F)(C(F)(F)F)C(F)(F)F)cc(CC)c1NC(=O)c1cccc(N(CC)C(=O)c2cc[n+]([O-])cc2)c1F [Compound 5]
not listed: Spodoptera littoralis | Heliothis virescens
≥ 80%: all other assays above

CCN(C(=O)c1ccncc1)c1cccc(C(=O)Nc2c(C)cc(C(F)(C(F)(F)F)C(F)(F)F)cc2Cl)c1F [Compound 14]
≥ 80%: all assays above

CCN(C(=O)c1ccncc1)c1cccc(C(=O)Nc2c(Cl)cc(C(F)(C(F)(F)F)C(F)(F)F)cc2Cl)c1F [Compound 11]
≥ 80%: all assays above

CN(C(=O)c1ccncc1)c1cccc(C(=O)Nc2c(Cl)cc(C(F)(C(F)(F)F)C(F)(F)F)cc2Br)c1F [Compound 3]
not listed: Heliothis virescens
≥ 80%: all other assays above

Cc1cc(C(F)(C(F)(F)F)C(F)(F)F)cc(Cl)c1NC(=O)c1cccc(N(C)C(=O)c2ccncc2)c1F [Compound 12]
≥ 80%: all assays above

CN(C(=O)c1ccncc1)c1cccc(C(=O)Nc2c(Cl)cc(C(F)(C(F)(F)F)C(F)(F)F)cc2Cl)c1F [Compound 10]
≥ 80%: all assays above

CCN(C(=O)c1ccncc1)c1cccc(C(=O)Nc2c(Cl)cc(C(F)(C(F)(F)F)C(F)(F)F)cc2Br)c1F [Compound 1, N′-[3-[[2-bromo-6-chloro-4-[1,1,1,2,3,3,3-heptafluoro-prop-2-yl]phenyl]carbamoyl]-2-fluoro-phenyl]-N-ethyl-pyridine-4-carboxamide]
≥ 80%: all assays above

CCN(C(=O)c1ccncc1)c1cccc(C(=O)Nc2c(Br)cc(C(F)(C(F)(F)F)C(F)(F)F)cc2C2CC2)c1F [Compound 15]
≥ 80%: all assays above

CCN(C(=O)c1ccncc1)c1cccc(C(=O)Nc2c(Cl)cc(C(F)(C(F)(F)F)C(F)(F)F)cc2OC(F)F)c1F [Compound 18]
not listed: Heliothis virescens
≥ 80%: all other assays above

CCN(C(=O)c1ccncc1)c1cccc(C(=O)Nc2c(Br)cc(C(F)(C(F)(F)F)C(F)(F)F)cc2OC(F)F)c1F [Compound 7]
≥ 80%: all assays above

CCN(C(=O)c1ccncc1)c1cccc(C(=O)Nc2c(Br)cc(C(F)(C(F)(F)F)C(F)(F)F)cc2Br)c1F [Compound 6]
≥ 80%: all assays above

CCN(C(=O)c1cc[n+]([O-])cc1)c1cccc(C(=O)Nc2c(Br)cc(C(F)(C(F)(F)F)C(F)(F)F)cc2C2CC2)c1F [Compound 16]
≥ 80%: all assays above

CCN(C(=O)c1cc[n+]([O-])cc1)c1cccc(C(=O)Nc2c(Cl)cc(C(F)(C(F)(F)F)C(F)(F)F)cc2Br)c1F [Compound 2, N′-[3-[[2-bromo-6-chloro-4-[1,1,1,2,3,3,3-heptafluoro-prop-2-yl]phenyl]carbamoyl]-2-fluoro-phenyl]-N-ethyl-1-oxido-pyridin-1-ium-4-carboxamide]
≥ 80%: all assays above

CCN(C(=O)c1cc[n+]([O-])cc1)c1cccc(C(=O)Nc2c(Br)cc(C(F)(C(F)(F)F)C(F)(F)F)cc2OC(F)F)c1F [Compound 17]
≥ 80%: all assays above

CCc1cc(C(F)(C(F)(F)F)C(F)(F)F)cc(CC)c1NC(=O)c1cccc(N(CC)C(=O)c2ccncc2)c1F [Compound 4]
not listed: Heliothis virescens
≥ 80%: all other assays above

CN(C(=O)c1ccncc1)c1cccc(C(=O)Nc2c(Br)cc(C(F)(C(F)(F)F)C(F)(F)F)cc2Br)c1F [Compound 8]
≥ 80%: all assays above

CCc1cc(C(F)(C(F)(F)F)C(F)(F)F)cc(Cl)c1NC(=O)c1cccc(N(CC)C(=O)c2ccncc2)c1F [Compound 13]
≥ 80%: all assays above
